The text below walks through data of ChEMBL document CHEMBL1201862, “PubChem BioAssay data set” (2004).

Assay [1] can be described thus: Jurkat T cell cytotoxicity, dose response, cytotoxicity control for P. falciparum gametocyte viability project, luminescence (AID 1117277).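 Note: potency reflects loss of cellular ATP meaning fewer viable cells.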 In kind it is functional, cell-based.
Assay [2] can be described thus: P. falciparum late gametocyte killing, dose response, luminescence (AID 1117278).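 Note: gametocytes exposed to compound for 24 hours.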 The assay is classed as functional, cell-based.
Assay [3] has as its target T1, Trace amine-associated receptor 1 (Homo sapiens, UniProt Q96RJ0).
T1 sequence (Q96RJ0 whole entry): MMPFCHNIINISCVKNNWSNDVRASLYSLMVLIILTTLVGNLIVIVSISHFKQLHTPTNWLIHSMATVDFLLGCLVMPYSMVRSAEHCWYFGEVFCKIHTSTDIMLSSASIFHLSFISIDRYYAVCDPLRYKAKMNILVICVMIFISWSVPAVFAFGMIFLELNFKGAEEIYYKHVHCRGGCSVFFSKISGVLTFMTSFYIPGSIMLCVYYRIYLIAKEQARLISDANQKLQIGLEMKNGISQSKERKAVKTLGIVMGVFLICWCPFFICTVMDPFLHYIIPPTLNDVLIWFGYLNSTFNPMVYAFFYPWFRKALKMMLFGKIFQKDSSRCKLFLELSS
Nature of the assay: Fluorescence-based cell-based high throughput dose response assay to identify antagonists of the human trace amine associated receptor 1 (TAAR1). The assay is classed as functional.

Assay [4] is described as follows: Counterscreen for antagonists of the human trace amine associated receptor 1 (hTAAR1): Fluorescence-based cell-based high throughput dose response assay to identify nonselective Ga16 antagonists. In kind it is functional. For orientation: Counterscreens check selectivity or assay interference.
The target in assay [5] is T1, Trace amine-associated receptor 1. Nature of the assay: Counterscreen for antagonists of the human trace amine associated receptor 1 (hTAAR1): Fluorescence-based cell-based high throughput dose response assay to identify TAAR1 Agonists. In kind it is functional.
Assay [6] is described as follows: Counterscreen for […] of the human trace amine associated receptor 1 (TAAR1): Fluorescence-based cell-based high throughput dose response assay to identify nonselective Ga16 agonists. The assay is classed as functional.
Assay [7] is described as follows: Luminescence Cell-Based Dose Retest to Confirm Inhibitors of Cancer Stem Cells. [Related pubchem assays (depositor defined):AID2717, AID2721]. The assay is classed as functional. The settings on record: Homo sapiens.
Assay [8] can be described thus: ADAM10 inhibitors, peptide cleavage, dose response, biochemical, QFRET (AID 743254).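 Note: ADAM10 enzyme with the DM2 quenched FRET peptide as substrate; EDANS fluorescence gain as the protease cuts the substrate; inhibitor potency against ADAM10 proteolytic activity.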
Assay [9] concerns the target Disintegrin and metalloproteinase domain-containing protein 17 (Homo sapiens, UniProt P78536). Nature of the assay: ADAM17 protease inhibitors, dose response, counter-screen for ADAM10 exosite inhibitor project, biochemical, quenched FRET substrate (AID 743253).
A further assay has as its target T2, Galanin receptor type 3 (Homo sapiens, UniProt O60755).
T2 sequence (O60755 whole entry): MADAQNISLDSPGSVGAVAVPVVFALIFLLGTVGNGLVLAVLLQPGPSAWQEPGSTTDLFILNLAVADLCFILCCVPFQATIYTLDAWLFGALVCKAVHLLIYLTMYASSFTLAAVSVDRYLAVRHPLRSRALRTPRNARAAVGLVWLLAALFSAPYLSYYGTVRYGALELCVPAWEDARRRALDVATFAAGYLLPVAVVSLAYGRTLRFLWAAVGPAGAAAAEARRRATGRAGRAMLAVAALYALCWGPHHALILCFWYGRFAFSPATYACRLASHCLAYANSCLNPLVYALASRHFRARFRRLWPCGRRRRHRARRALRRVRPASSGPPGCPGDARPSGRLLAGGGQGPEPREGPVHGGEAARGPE
Nature of the assay: Fluorescence-based cell-based primary high throughput dose response assay to identify antagonists of the Galanin Receptor 3 (GalR3). In kind it is functional.

Assay [10] in a line: cells. In kind it is functional, cell-based. The settings on record: HEK-CNG.
Assay [11] deals with COUP transcription factor 2 (Homo sapiens, UniProt P24468). Nature of the assay: Luminescence-based cell-based high throughput dose response assay to identify inhibitors of COUP-TFII (NR2F2). The assay is classed as functional.
In the next assay the target is fMet-Leu-Phe receptor (Homo sapiens, UniProt P21462). Nature of the assay: FPR ligands, dose response (AID 519). The assay is classed as functional.
The next assay deals with Prothrombin (Homo sapiens, UniProt P00734). Put plainly: Thrombin 1536 HTS Dose Response Confirmation. [Related pubchem assays: 1046 (Thrombin 1536 HTS; hits were confirmed in this assay)]. In kind it is functional.
A further assay has as its target Protein Tat (Human immunodeficiency virus type 1 group M subtype B (isolate HXB2)(HIV-1), UniProt P04608). The assay is classed as functional.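 Note: tat binding to TAR RNA read out by fluorescence polarization.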
Another assay concerns the target Major prion protein (Homo sapiens, UniProt P04156). The assay is classed as functional, cell-based.
Assay [12] is described as follows: cells.
The nature of assay [13]: C. albicans growth with fluconazole, confirmation, fluorescence, retest (AID 2467). The assay is classed as functional, cell-based.
Assay [14] in a line: inhibitors of intracellular T. cruzi replication, confirmation, NIH3T3 host cells, beta-gal luminescence (AID 2044).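 Note: intracellular parasites grown in NIH/3T3 mouse fibroblasts as host cells; luminescent beta-galactosidase reporter signal from transgenic T. cruzi replicating inside host cells; inhibitors lower the luminescence signal.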 In kind it is functional, cell-based.
Assay [15] can be described thus: NIH-3T3 fibroblast cytotoxicity, dose response, cytotoxicity control, cell-based, fluorescence, Alamar Blue, secondary assay (AID 2327).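 Note: NIH-3T3 mouse fibroblasts cultured with fluconazole at 8 µg/mL.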 The assay is classed as functional. Background: Resazurin is reduced to fluorescent resorufin, in cell work by metabolically active cells.
Assay [16] is described as follows: cytotoxicity toward NIH3T3 fibroblasts, dose response, counter-screen, cell-based, ATP luminescence, mouse fibroblasts (AID 2010).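 Note: cells exposed to compound for about 90 hours before reading.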 In kind it is functional.
In assay [17] the target is T3, Probable nicotinate-nucleotide adenylyltransferase (Staphylococcus aureus (strain N315), UniProt P65502). In kind it is functional, Staphylococcus aureus subsp. aureus N315.
Assay [18] is described as follows: Luminescence-based cell-based high throughput dose response assay to identify activators of the DAF-12 from the parasite S. stercoralis (ssDAF-12). In kind it is functional.
Assay [19] addresses T4, Carboxy-terminal domain RNA polymerase II polypeptide A small phosphatase 1 (Homo sapiens, UniProt Q9GZU7).
T4 sequence (Q9GZU7 whole entry): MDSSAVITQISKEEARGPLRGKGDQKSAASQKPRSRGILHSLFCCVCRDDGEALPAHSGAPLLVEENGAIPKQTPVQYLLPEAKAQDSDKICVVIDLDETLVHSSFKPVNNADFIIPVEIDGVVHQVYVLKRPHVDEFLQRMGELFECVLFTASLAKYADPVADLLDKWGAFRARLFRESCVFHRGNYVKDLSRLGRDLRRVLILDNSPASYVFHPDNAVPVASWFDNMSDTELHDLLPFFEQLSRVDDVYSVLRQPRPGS
Put plainly: inhibitors of CTDSP1, concentration-response testing, biochemical assay, absorbance-based, actives from ultra-high-throughput screening (AID 540297). The assay is classed as functional.

Assay [20] concerns the target Induced myeloid leukemia cell differentiation protein Mcl-1 (Homo sapiens, UniProt Q07820). In kind it is functional.
Assay [21] has as its target T3, Probable nicotinate-nucleotide adenylyltransferase. In kind it is functional, Staphylococcus aureus subsp. aureus N315. The settings on record: read-out: IC50_Mean.

Calls of active or inactive are those of the source. Bounds are passed on as bounds.
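Throughout, for AC50: cells exposed to compound for roughly 70 hours or longer before luminescence read.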
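Throughout, for IC50 Mean: confirmatory dose-response retesting of NadD inhibitor hits first found in an ultra-high-throughput screen.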

For the compound `CC1CCCCN1C(=O)Cn1c(=O)oc2ccccc21` (centres undefined), the figures for the IC50 in assay [1] and in assay [2] were > 83.3 µM (inactive) and > 109 µM (inactive), respectively.
Regarding `CC(C)C[C@H](NC(=O)c1[nH]cnc1C(=O)NCC(=O)OCc1ccccc1)C(=O)OCc1ccccc1`, the figures for the IC50 in assay [3] and in [4] were 4.32 µM (active) and > 29.9 µM (inactive), respectively. Also, the EC50 in assay [5] and in assay [6] was > 29.9 µM (inactive) each time.
On to `COc1ccccc1Nc1ccc(NC(=O)c2cccc([N+](=O)[O-])c2C)cc1`, for which, in assay [7], the concentration at half-maximal activity (AC50) is 3.32 µM (active). Moreover, the IC50 is 15.4 µM (inactive) in assay [8] and > 69.5 µM (inactive) in assay [9].
With `CC(C)c1ccc(CN2CCN(C(=O)CSc3nnnn3C3CC3)CC2)cc1`, the IC50 was 1.34 µM (active) on Galanin receptor type 3 and 8.28 µM (active) in [11]. Further, the EC50 in “cells [10]” was > 29.9 µM (inactive).
Consider `Cc1cc(N2C(=O)C(O)=C(C(=O)c3ccco3)C2c2cccnc2)no1` (centres undefined), for which, at fMet-Leu-Phe receptor, the Ki was > 66.7 µM (inactive).
For the compound `CN1C(=O)/C(=C2\SC(=S)N(C(CCC(=O)O)C(=O)O)C2=O)c2ccccc21` (centres undefined), the IC50 at Prothrombin is > 50 µM (not active). Besides, the Ki on fMet-Leu-Phe receptor was > 66.7 µM (inactive).
Consider `Cc1cc(-c2csc(NC(=O)c3cc4ccccc4o3)n2)c(C)n1C`, for which the IC50 on Protein Tat was > 100 µM (active).
In the case of `O=C(COc1ccc2ccccc2c1Br)Nc1ccncc1`, the values for the IC50 on Major prion protein and in the assay “cells [12]” were 10.4 µM (inactive) and > 138 µM (inactive), respectively.
On to `O=C(NNc1ccccc1)C(=O)NNS(=O)(=O)c1ccc(CCCl)cc1`, for which the EC50 is > 38 µM (not active) in [13], 2 µM (active) in assay [14], 2.67 µM (inconclusive) in assay [15] and 3.48 µM (active) in assay [16]. The results for the IC50 in assay [8] and in assay [9] were 23.4 µM (inactive) and 27 µM (inactive), respectively.
Consider `Cc1csc(NC(=O)c2cc(-c3ccco3)nc3ccccc23)n1`, for which the IC50 in assay [17] was 9.45 µM (active); in [18], > 67.5 µM (inactive); in assay [19], 4.76 µM (active); in [20] it was 4.03 µM (active); in [21], 18.4 µM (active).

What is called EC50 is the concentration giving half of the maximal effect. Broadly, the AC50 is the concentration giving half of the maximal activity seen. A word on the Ki: it is the dissociation constant of the complex between target and ligand, obtained from inhibition or displacement.
